Results as given in US20250129096A1, “ANNULATED 2-AMINO-3-CYANO THIOPHENES AND DERIVATIVES FOR THE TREATMENT OF CANCER” (Boehringer Ingelheim Int'l GmbH Corp., priority 2021, published 2025).
Where two headings read alike, the source gives them in different places.

Legend:
[1] = tested on: NCI-H358 cells (NSCLC, G12C); assay: NCI-H358 CTG proliferation assay (120 h), assay 2; format: cell-based; conditions: Homo sapiens, CellTiter-Glo, 384-well, 200 cells per well
Protocol: NCI-1H358 cells (ATCC No. CRL-5807) are dispensed into white bottom opaque 96 well plates (Perkin Elmer cat no. 5680) at a density of 2000 cells per well in 100 μL RPM 1-1640 ATCC-Formulation (Gibco #A10491)+10% FCS (fetal calf serum) (assay 1) or into black 384-well plates, flat and clear bottom (Greiner, PNr. 781091) at a density of 200 cells per well in 60 μl RPMI-1640 ATCC-Formulation (Gibco #A10491)+10% FCS (fetal calf serum) (assay 2). […] Compounds (10 mM stock in DMSO) are added at logarithmic dose series using the HP Digital Dispenser D300 (Tecan) (assay 1) or the ECHO acoustic liquid handler system (Beckman Coulter) (assay 2), normalizing for added DMSO and including DMSO controls. For the TO time point measurement, untreated cells are analyzed at the time of compound addition. Plates are incubated for 120 h, and cell viability is measured using CellTiter-Glo luminescent cell viability reagent (Promega product code G7570). Viability (stated as percent of control) is defined as relative luminescence units RLU of each well divided by the RLU of cells in DMSO controls. IC50 values are determined from viability measurements by non-linear regression using a four-parameter model.

[2] = target: T1, CYP3A4 (Homo sapiens, UniProt P08684); assay: Mechanism based inhibition of CYP3A4 assay (MBI 3A4); format: in vitro ADME; conditions: 25 uM, hydroxy-midazolam formation after 30 min preincubation relative to 0 min, human liver microsomes
T1 construct: assayed in human liver microsomes (0.02 mg/mL) with midazolam (15 μM) as a substrate; from tissue; host or cells: human liver microsomes
Protocol: After preincubation, the incubate is diluted 1:10 and the substrate midazolam is added for the main incubation (15 min). The main incubation is quenched with acetonitrile and the formation of hydroxy-midazolam is quantified via LC/MS-MS. The formation of hydroxy-midazolam from the 30 min preincubation relative to the formation from the 0 min preincubation is used as a readout. Values of less than 100% mean that the substrate midazolam is metabolized to a lower extent upon 30 min preincubation compared to 0 min preincubation. In general low effects upon 30 min preincubation are desired (corresponding to values close to 100%/not different to the values determined with water control).

[3] = Solubility measurement (DMSO solution precipitation method); format: physicochemical; conditions: aqueous buffer, kinetic from dmso stock, ambient temperature
Protocol: The DMSO solution is diluted with an aqueous medium (McIlvaine buffer with pH=4.5 or 6.8) to a final concentration of 250 μM. After 24 h of shaking at ambient temperature a potentially formed precipitate is removed by filtration. The concentration of the test compound in the filtrate is determined by LC-UV methods by calibrating the signal to the signal of a reference solution with complete dissolution of the test compound in acetonitrile/water (1:1) with known concentration.

[4] = Caco-2 assay; format: in vitro ADME; conditions: human; for Papp A→B at 90 min, 10 μM: Caco-2, apical to basolateral, pH 7.4, read-out: Caco PappAB; for efflux ratio at 90 min, 10 μM: Caco-2, pH 7.4, efflux ratio PappBA/PappAB, read-out: Caco ER
Description: The assay provides information on the potential of a compound to pass the cell membrane, on the extent of oral absorption as well as on whether the compound is actively transported by uptake and/or efflux transporters. Permeability measurements across polarized, confluent Caco-2 cell monolayers grown on permeable filter supports (Corning, catalog #3391) are used. […] The receiver and donor compartments contain 0.25% bovine serum albumine (BSA) in assay buffer. Passive diffusion and/or active transport of compounds across the monolayer is measured in both apical to basolateral (a-b) and basolateral to apical (b-a) direction. a-b permeability (PappAB) represents drug absorption from the intestine into the blood and b-a permeability (PappBA) drug secretion from the blood back into the intestine via both passive permeability as well as active transport mechanisms mediated by efflux and uptake transporters that are expressed on the Caco-2 cells. After a pre-incubation of 25-30 min at 37° C., at predefined time points (0, 30, 60 and 90 min), samples were taken from the receiver and donor compartment, respectively. Concentrations of test compounds in samples were measured by HPLC/MS/MS, samples from the donor compartment were diluted 1:50 (v:v) with assay buffer, samples from receiver compartment were measured without dilution.
Apparent permeabilities in a-b (PappAB) and b-a (PappBA) directions are calculated according to the formula:
[formula] • Vrec [mL]: buffer volume in receiver compartment • Cdon [μmol/mL]: concentration of test compound in donor compartment at t=0 • ΔCrec: difference between concentrations of test compound in receiver compartment at start and end of incubation time • Δt: Incubation time • Vrec·ΔCrec/Δt [μmol/min]: Amount of compound transferred to receiver compartment per time • A [cm^2]: filter surface
Caco-2 efflux ratios (ER) are calculated as the ratio of PappBA/PappAB.

[5] = target: T2, KRAS (G12C)::SOS1 (Homo sapiens, UniProt P01116, C118S/C51S/C80L/G12C); assay: KRAS::SOS1 AlphaScreen binding assay, KRAS G12C
T2 construct: KRAS (G12C) 1-169, N-terminal 6His-tag for purification, cleaved off; 6His-tag (N, cleaved yes)
Protocol: (§1) Low IC50 values in this assay setting are indicative of strong inhibition of protein-protein interaction between SOS1 and KRAS:
(§2) These assays measure the inhibitory effect of compounds on KRAS mutant protein-protein interactions using the Alpha Screen technology by Perkin Elmer.
(§3) For the chosen highest assay concentration of 100 μM, 150 nL of compound solution are transferred from a 10 mM DMSO compound stock solution. A series of eleven fivefold dilutions per compound are transferred to the assay plate, compound dilutions are tested in duplicates. DMSO are added as backfill to a total volume of 150 nL.
(§4) The assays run on a fully automated robotic system in a darkened room below 100 Lux. To 150 nl of compound dilution 10 μl of a mix including KRAS mutant protein, SOS1 (final assay concentrations see above) and GDP nucleotide (Sigma G7127; final assay concentration 10 μM) in assay buffer (1×PBS, 0.1% BSA, 0.05% Tween 20) are added into columns 1-24. After 30 minutes incubation time 5 μl of Alpha Screen bead mix in assay buffer are added into columns 1-23.
(§5) Plates are kept at room temperature in a darkened incubator. After an additional 60 minutes incubation time the signal is measured in a PerkinElmer Envision HTS Multilabel Reader using the AlphaScreen specs from PerkinElmer.
(§6) IC50 values are calculated and analyzed with Boehringer Ingelheim's MEGALAB IC50 application using a 4 parametric logistic model.

[6] = target: KRAS G12C Ba/F3 cells (Homo sapiens, UniProt P01116, G12C, cells depend on it); assay: Ba/F3 proliferation assay, KRAS G12C; format: cell-based; conditions: 72 h, AlamarBlue; read-out: KRAS G12C Ba/F3 IC50
Protocol: (§7) To generate KRASG12-dependent Ba/F3 models, Ba/F3 cells are transduced with retroviruses containing vectors that harbor KRASG12 isoforms. Platinum-E cells (Cell Biolabs) are used for retrovirus packaging. Retrovirus is added to Ba/F3 cells. To ensure infection, 4 μg/mL polybrene is added and cells are spinfected. […] Cells with an infection efficiency of 10% to 20% are further cultivated and puromycin selection with 1 μg/mL is initiated. As a control, parental Ba/F3 cells are used to show selection status. Selection is considered successful when parental Ba/F3 cells cultures died. To evaluate the transforming potential of KRASG12 mutations, the growth medium is no longer supplemented with IL-3. Ba/F3 cells harboring the empty vector are used as a control. Approximately ten days before conducting the experiments, puromycin is left out. […] All treatments are performed in technical duplicates. […] AlamarBlue™(ThermoFisher), a viability stain, is added and fluorescence measured in the PerkinElmer Envision HTS Multilabel Reader. The raw data are imported into and analyzed with the Boehringer Ingelheim proprietary software MegaLab (curve fitting based on the program PRISM, GraphPad Inc.).

[7] = target: KRAS G12D Ba/F3 cells (Homo sapiens, UniProt P01116, G12D, cells depend on it); assay: Ba/F3 proliferation assay, KRAS G12D; format: cell-based; conditions: 72 h, AlamarBlue; read-out: KRAS G12D Ba/F3 IC50
Protocol: as §7

[8] = target: T3, KRAS (G12D)::SOS1 (Homo sapiens, UniProt P01116, G12D); assay: KRAS::SOS1 AlphaScreen binding assay, KRAS G12D
T3 construct: KRAS (G12D) 1-169, N-terminal 6His-tag, C-terminal avi-tag; 6His-tag (N); purchased Xtal BioStructures, Inc. (KRAS G12D); Viva Biotech Ltd (SOS1)
Protocol: as §1, §2, §3, §4, §5, §6

[9] = McIlvaine buffer pH 4.5, 24 h, read-out: solubility pH 4.5
[10] = McIlvaine buffer pH 6.8, 24 h, read-out: solubility pH 6.8

KRAS G12D Ba/F3 cells, sequence (P01116 whole entry G12D): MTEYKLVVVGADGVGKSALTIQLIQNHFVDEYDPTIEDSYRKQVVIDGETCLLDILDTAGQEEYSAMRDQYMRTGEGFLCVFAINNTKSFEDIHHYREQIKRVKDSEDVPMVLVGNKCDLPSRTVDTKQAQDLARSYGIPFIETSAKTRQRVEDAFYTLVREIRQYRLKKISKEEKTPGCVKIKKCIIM
KRAS G12C Ba/F3 cells, sequence (P01116 whole entry G12C, canonical isoform): as the sequence (P01116 whole entry G12D) above, with D12C counted along it
T3 sequence (P01116 1-169 isoform P01116-2 G12D): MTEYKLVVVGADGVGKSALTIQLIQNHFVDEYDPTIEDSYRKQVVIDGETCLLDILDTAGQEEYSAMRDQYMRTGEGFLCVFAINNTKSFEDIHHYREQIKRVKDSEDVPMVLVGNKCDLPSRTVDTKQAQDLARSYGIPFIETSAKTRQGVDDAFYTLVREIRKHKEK
T2 sequence (P01116 1-169 isoform P01116-2 G12C/C51S/C80L/C118S): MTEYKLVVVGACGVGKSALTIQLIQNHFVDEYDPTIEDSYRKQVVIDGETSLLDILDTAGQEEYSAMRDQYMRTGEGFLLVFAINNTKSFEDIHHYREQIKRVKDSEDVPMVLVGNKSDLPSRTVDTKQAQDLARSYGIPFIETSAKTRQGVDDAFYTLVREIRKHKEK
T1 sequence (P08684 whole entry): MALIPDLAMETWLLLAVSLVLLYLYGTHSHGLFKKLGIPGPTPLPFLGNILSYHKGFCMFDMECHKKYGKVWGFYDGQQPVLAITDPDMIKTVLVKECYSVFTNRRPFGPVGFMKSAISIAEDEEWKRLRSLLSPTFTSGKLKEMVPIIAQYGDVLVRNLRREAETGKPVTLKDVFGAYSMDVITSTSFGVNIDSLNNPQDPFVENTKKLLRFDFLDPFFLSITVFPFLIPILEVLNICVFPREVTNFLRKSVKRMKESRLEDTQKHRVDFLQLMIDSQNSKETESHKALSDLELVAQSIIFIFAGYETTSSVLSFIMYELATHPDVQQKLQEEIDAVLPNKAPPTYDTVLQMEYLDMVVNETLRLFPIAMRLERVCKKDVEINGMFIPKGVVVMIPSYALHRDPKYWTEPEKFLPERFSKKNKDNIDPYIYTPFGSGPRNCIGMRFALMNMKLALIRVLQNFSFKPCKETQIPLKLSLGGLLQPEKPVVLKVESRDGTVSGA

IC50 [1]	MBI 3A4 [2]	solubility at 24 h [3, 9]	solubility at 24 h [3, 10]	Papp A→B at 90 min, 10 μM [4]	efflux ratio at 90 min, 10 μM [4]	IC50 [5]	GI50 [6]	GI50 [7]	IC50 [8]	Structure (SMILES)
402 nM	52%	> 110 µg/mL	> 110 µg/mL	21 ×10⁻⁶ cm/s	1.3	4 nM	19 nM	13 nM	2 nM	C[C@H](Oc1nccc(-c2noc3c2CCC[C@@]32CCCc3sc(N)c(C#N)c32)n1)[C@@H]1CCCN1C [IIb-6]
1440 nM	54%	> 110 µg/mL	> 110 µg/mL	26 ×10⁻⁶ cm/s	1.3	3 nM	51 nM	24 nM	2 nM	C[C@H](Oc1nccc(-c2onc3c2CCC[C@@]32CCCc3sc(N)c(C#N)c32)n1)[C@@H]1CCCN1C [Ib-1]
